From patent US9605064B2, “Methods and compositions for treatment of skin disorders” (AbbVie Biotechnology Ltd, priority 2006, dated 2017)
Marks after values point to notes of the source that are not given here.

Key:
[1] = test system: patients with moderate to severe chronic plaque psoriasis; assay: DLQI, Phase II 12-week placebo-controlled trial with 48-week extension; type: in vivo, human; details: for Mean change in DLQI from baseline at Week 60: observed values; for DLQI = 0 / DLQI = 1 / DLQI = 2 / DLQI ≧ 3 / patients who achieved DLQI=0: pooled arms
Excerpt: The DLQI is a validated instrument used to measure disease impact on daily function.
The DLQI is a validated instrument used to assess dermatologic-related functional limitations, and was used as the patient related outcomes (PRO) measure. The DLQI consists of ten items and an overall scoring range of 0-30, where higher scores represent greater quality of life impairment and lower scores represent lower quality of life impairment. The DLQI also includes well-established properties of reliability and validity for the DLQI total score in a dermatology setting and measures six subcategories: symptoms and feelings, daily activities, leisure, work/school, personal relationships, and treatment.
Patients who discontinued before the time point were not included in this analysis. Ranges of DLQI scores were evaluated for their correspondence to categories of disease impact and are described below in Table 1.
PROs were assessed using the DLQI. The DLQI is a validated instrument used to assess dermatologic-related functional limitations.

[2] = test system: adult patients with moderate to severe chronic plaque psoriasis; assay: PASI response and loss of adequate response, REVEAL 52-week Phase III trial; type: in vivo, human; details: for PASI 100 Response Rates, % Patients: n = 814, ITT, NRI; for Mean Percentage PASI Improvement During Period B: relative to baseline, patients randomized to adalimumab who entered Period B, as observed; for patients with loss of adequate response: Week 33 PASI 75 responders re-randomized to continue adalimumab in period C, by Week 52
Excerpt: The main inclusion criteria for this study included a clinical diagnosis of psoriasis for ≧6 months and affected body surface area (BSA)≧10% and PASI≧12. The main exclusion criteria included prior use of systemic or biologic anti-TNF therapy. The washout period included two weeks for topical agents and UVB, 4 weeks for PUVA and non-biologic systemic therapies, and 12 weeks for all biologic therapies. The two co-primary endpoints were: • Percentage of patients achieving PASI≧75 at Week 16 • Percentage of patients, among Week 33 PASI≧75 responders, losing an adequate response after Week 33, characterized by: • PASI<50 (relative to baseline) and • At least a 6 point increase in PASI
Period A was double-blind, placebo-controlled, and lasted from weeks 0-16. […] At Week 16 patients who achieved ≧PASI 75 improvement continued into Period B, while those patients having <PASI 75 improvement entered the open label extension (OLE) study (FIG. 7).
Period B was open-label and lasted from Weeks 17-33. […] Patients who achieved ≧PASI 75 response at Week 33 entered Period C.
Period C was a double-blind, placebo-controlled which was held from weeks 34-52.
Various analytical methods were used in the study. Intention-to-treat (ITT) analyses were performed for all randomized patients in Periods A and C. […] Week 24 results from NRI analysis include pooled efficacy outcomes from OLE and Period B. After Week 24, non-overlapping OLE and Period B study visits prevent complete pooling of efficacy outcomes. Continuous variables were analyzed as observed during Period B
The REVEAL study had two independent primary endpoints. The first endpoint was the proportion of patients achieving 75 percent improvement in skin clearance after 16 weeks. The second endpoint was the proportion of patients who lost adequate response through week 52 after stopping treatment with HUMIRA at week 33. Signs of psoriasis were evaluated using the Psoriasis Area and Severity Index (PASI), among other measures. […] At week 52, the start of the OLE period, patients randomized at week 33, as well as patients originally in the placebo group at week 0, were able to enter the OLE period.

[3] = PASI 75-99 responders who had DLQI>0 at Week 60
[4] = PASI improvement 50-74 (n = 18), Week 60
[5] = PASI improvement 75-99 (n = 54), Week 60
[6] = PASI improvement 100 (n = 29), Week 60
[7] = PASI improvement <50 (n = 5), Week 60
[8] = patients with PASI 75-99, Week 60
[9] = patients with PASI 100, Week 60

## Adalimumab: a human anti-TNF mAb, described in U.S. Pat. No. 6,090,382 as D2E7 (HUMIRA, Abbott Laboratories)
[1]; 40 mg eow, week 12
  patients with change from large/extremely large DLQI impact at baseline to no/small impact: 85%
[1]; 40 mg eow, week 24
  patients with change from large/extremely large DLQI impact at baseline to no/small impact: 85%
[1]; 40 mg eow, week 36
  patients with change from large/extremely large DLQI impact at baseline to no/small impact: 83%
[1]; 40 mg eow, week 60
  patients with change from large/extremely large DLQI impact at baseline to no/small impact: 83%
[1]; 40 mg weekly, Week 12
  mean change in DLQI: −11.5*
  patients with change from large/extremely large DLQI impact at baseline to no/small impact: 86%
[1]; 40 mg weekly, week 24
  patients with change from large/extremely large DLQI impact at baseline to no/small impact: 88%
[1]; 40 mg weekly, week 36
  patients with change from large/extremely large DLQI impact at baseline to no/small impact: 91%
[1]; 40 mg weekly, week 60
  patients with change from large/extremely large DLQI impact at baseline to no/small impact: 100%
[1]; PASI 50-74
  Mean change in DLQI from baseline at Week 60: −8.8
[1]; PASI 75-99
  Mean change in DLQI from baseline at Week 60: −11.5
[1]; [3]
  embarrassment/self-consciousness because of skin condition: approximately 20%
  persistent symptoms of itching, soreness, pain, or stinging of the skin: approximately 50%
[1]; PASI 100
  Mean change in DLQI from baseline at Week 60: −11.1
[1]; PASI <50
  Mean change in DLQI from baseline at Week 60: −6.0
[1]; [4]
  DLQI = 0: 5 (28) n (%)
  DLQI = 1: 3 (17) n (%)
  DLQI = 2: 3 (17) n (%)
  DLQI ≧ 3: 7 (39) n (%)
[1]; [5]
  DLQI = 0: 20 (37) n (%)
  DLQI = 1: 19 (35) n (%)
  DLQI = 2: 4 (7) n (%)
  DLQI ≧ 3: 11 (20) n (%)
[1]; [6]
  DLQI = 0: 23 (79) n (%)
  DLQI = 1: 3 (10) n (%)
  DLQI = 2: 3 (10) n (%)
  DLQI ≧ 3: 0 (0) n (%)
[1]; [7]
  DLQI = 0: 0 (0) n (%)
  DLQI = 1: 1 (20.0) n (%)
  DLQI = 2: 2 (40) n (%)
  DLQI ≧ 3: 2 (40) n (%)
[1]; adalimumab-treated patients
  mean change in DLQI: ≥ 10 points
[1]; baseline PASI ≧10 and DLQI >10, 40 mg eow, Week 12
  DLQI mean change from baseline: −15
[1]; baseline PASI ≧10 and DLQI >10, 40 mg eow, Week 24
  DLQI mean change from baseline: −14
[1]; baseline PASI ≧10 and DLQI >10, 40 mg eow, Week 36
  DLQI mean change from baseline: −15
[1]; baseline PASI ≧10 and DLQI >10, 40 mg eow, Week 60
  DLQI mean change from baseline: −15
[1]; baseline PASI ≧10 and DLQI >10, 40 mg weekly, Week 12
  DLQI mean change from baseline: −16
[1]; baseline PASI ≧10 and DLQI >10, 40 mg weekly, Week 24
  DLQI mean change from baseline: −17
[1]; baseline PASI ≧10 and DLQI >10, 40 mg weekly, Week 36
  DLQI mean change from baseline: −18
[1]; baseline PASI ≧10 and DLQI >10, 40 mg weekly, Week 60
  DLQI mean change from baseline: −17
[1]; baseline PASI ≧10 and DLQI >10, placebo/adalimumab 40 mg eow, Week 24
  DLQI mean change from baseline: −12
[1]; baseline PASI ≧10 and DLQI >10, placebo/adalimumab 40 mg eow, Week 36
  DLQI mean change from baseline: −14
[1]; baseline PASI ≧10 and DLQI >10, placebo/adalimumab 40 mg eow, Week 60
  DLQI mean change from baseline: −12
[1]; baseline PASI ≧10 and DLQI >10, weekly, Week 60
  mean DLQI score: 0.7
[1]; from dosage escalation to Week 60, 18 of the 30 patients who switched to weekly dosing
  Mean improvement in DLQI: 2.1
[1]; of the total 106 patients receiving adalimumab at Week 60
  patients who achieved DLQI=0: 48 patients
[1]; patients receiving adalimumab at Week 60
  patients who achieved DLQI=0: approximately 45%
[1]; patients with 50-74, Week 60
  patients who achieved a DLQI=0: 28%
[1]; patients with PASI 50-74, Week 60
  mean change in DLQI from baseline: −8
[1]; [8]
  mean change in DLQI from baseline: −11.5
  patients who achieved a DLQI=0: 37%
[1]; [9]
  mean change in DLQI from baseline: −11.1
  patients who achieved a DLQI=0: 79%
[1]; patients with PASI<50, Week 60
  mean change in DLQI from baseline: −6
[1]; placebo patients switched to adalimumab at week 12, week 24
  patients with change from large/extremely large DLQI impact at baseline to no/small impact: 67%
[1]; placebo patients switched to adalimumab at week 12, week 36
  patients with change from large/extremely large DLQI impact at baseline to no/small impact: 79%
[1]; placebo patients switched to adalimumab at week 12, week 60
  patients with change from large/extremely large DLQI impact at baseline to no/small impact: 71%
[1]; randomized to adalimumab, week 12
  patients with change from large/extremely large DLQI impact at baseline to no/small impact: 85%
[2]; Week 4, double-blind
  PASI 100 Response Rates, % Patients: 0.9%
[2]; Week 8, double-blind
  PASI 100 Response Rates, % Patients: 7.1* %
[2]; Week 12, double-blind
  PASI 100 Response Rates, % Patients: 14.4* %
[2]; Week 16, double-blind
  PASI 100 Response Rates, % Patients: 20* %
[2]; Week 16
  Mean Percentage PASI Improvement During Period B: 91.9%
[2]; Week 24, open-label, pooled Period B and OLE
  PASI 100 Response Rates, % Patients: 22.5* %
[2]; Week 24
  Mean Percentage PASI Improvement During Period B: 91.2%
[2]; Week 33
  Mean Percentage PASI Improvement During Period B: 89.3%
[2]
  patients with loss of adequate response: 4.9* %
[2]; listed as adalimumab
  patients with loss of adequate response: 5%
